The test system of data set [1] is promastigotes of L. infantum. As to conditions: cited from earlier work.
Data set [2] deals with L. donovani promastigotes. Kind of data set: In vitro L. donovani promastigotes growth inhibition (resazurin-based assay). It is filed as cell-based. The following applies: Leishmania donovani, 72 h; for inhibition at 25 µM / inhibition at 50 µM: growth of L. donovani promastigotes, incubation 3 days, relative to control; for IC50: incubation for 3 days, from dose-response curves, read-out: IC50 against L. donovani promastigotes. As to the method:
Using an in vitro promastigotes-based model, the activity of the synthesized target compounds 2a–i was assessed against the promastigote stage of L. donovani. A double-concentration assay was performed for each compound at 50 and 25 µM concentrations adopting a resazurin-based assay system. Erufosine was used as a positive reference standard drug.
Among the evaluated compounds, seven derivatives maintained a high inhibitory activity at 25 and 50 μM concentrations which was similar to erufosine. Therefore, they were advanced to assessment of potency to evaluate their quality as antileishmanial hit compounds. […] Erufosine was used as positive controls for comparison.
(§1) 2.1. In vitro L. donovani promastigotes-based evaluation model
(§2) 2.1.1. Cell culture of parasite
(§3) L. donovani MHOM/SD/62/1S-CL2D parasites (Department of PIV, Institut Pasteur, Paris,
(§4) France) were cultured as promastigotes at 28 °C in M199 medium (Sigma-Aldrich, St. Louis, MO,
(§5) USA) with 40 mM HEPES, 0.1 mM adenine, 0.0001% biotin, and 4.62 mM NaHCO3
(§6) supplemented with 10% foetal bovine serum (FBS, Gibco, Carlsbad, CA, USA), […]
(§7) penicillin (Gibco), and […] streptomycin (Gibco). Parasites were sub-cultured every 3 or
(§8) 4 days and maintained for 10 passages.
(§9) 2.1.2 Assay of parasite growth inhibition
(§10) The values of growth inhibition of L. donovani promastigotes were determined based on the
(§11) metabolism of resazurin to resorufin by aerobic respiration of metabolically active cells using 384-
(§12) well plates that were seeded with L. donovani promastigotes (5x10^4 cells per well) and incubated
(§13) with tested compounds for 3 days followed by addition of Resazurin sodium salt (200 µM; R7017;
(§14) Sigma-Aldrich, St. Louis, MO, USA) and further incubation for 5 h then the cells were fixed (4%
paraformaldehyde). The plates were analysed using a Victor3TM plate reader (PerkinElmer, Inc.,
Waltham, MA, USA) at 590 nm (emission) and 530 nm (excitation). Miltefosine and erufosine
were used as the reference standards. All measured and calculated values are the averages of
triplicates. The dose-response curves were generated by GraphPad Prism 6 software using a
sigmoidal dose-response equation with a variable hill slope option. […]
For orientation: The colour change of resazurin is a common sign of viable cells or microbes.

Data set [3] can be described thus: In vitro safety evaluation: cytotoxicity on THP-1 cells. It is filed as cell-based. As to conditions: human, PMA-treated THP-1 monocytic cells, THP-1 human monocytic cell line. The procedure:
As for the considerable toxicities of current antileishmanial therapies, a promising drug candidate should be selective eliciting no potential cytotoxicity towards human cells. […] The newly introduced hit compound needs to be safe and non-toxic to human cells. A comparison with the standard drug erufosine was performed. […] In light of these findings, it might be inferred that both cinnamoyl ketoamide hybrids 2g and 2h could be selective antileishmanial hit compounds for future development.
as §1, §2, §3, §4, §5, §6, §7, §8, §9, §10, §11, §12, §13, §14
paraformaldehyde). The plates were analysed using a Victor3TM plate reader (PerkinElmer, Inc., […]
were used as the reference standards. All measured and calculated values are the averages of […]
The images were acquired based on reading using an Operetta® automated microscope
(PerkinElmer, Inc., Waltham, MA 02451, USA). They were further analysed using ColumbusTM
(PerkinElmer, Inc. Waltham, MA, USA) software to quantify parasite numbers, and host cell
numbers. In brief, large-sized nucleus of host cells was first detected using DAPI signal and the […]

Data set [4] has as its system promastigotes of L. amazonensis. As to conditions: read-out: IC50 against promastigotes of L. amazonensis; cited from earlier work.

Consider `O=C(/C=C/c1ccc(O)c(O)c1)OCCc1ccccc1` [CAPE, caffeic acid phenethyl ester], for which the “IC50 against promastigotes of L. infantum” value in data set [1] was 51.0 µg/mL.
For orientation: inhibition means the relative decrease from the control value, in per cent. In general, IC50 refers to the concentration at which inhibition is half-maximal. As for `O=C(C=Cc1ccc(O)c(O)c1)NC(Cc1ccccc1)C(=O)C(=O)NCc1ccccc1` (centres unmarked) [Compound 2a], in data set [2], the inhibition at 25 µM is 97.8 ± 1%, the inhibition at 50 µM amounted to 103 ± 0.4% and the 50% inhibitory concentration (IC50) is above 100 µM.
For the compound `COc1ccc(CCNC(=O)C(=O)C(Cc2ccccc2)NC(=O)C=Cc2ccc(O)c(O)c2)cc1` (centres unmarked) [Compound 2b], in data set [2], the inhibition at 25 µM is 44 ± 1.2% and the inhibition at 50 µM was determined as 72.83 ± 0.4%.
For the compound `CCC(=Cc1ccc(O)c(O)c1)C(=O)NC(Cc1ccccc1)C(=O)C(=O)NCc1ccccc1` (centres unmarked) [Compound 2c], in data set [2], the inhibition at 25 µM was 104 ± 0.3%, the inhibition at 50 µM is 101 ± 0.2% and the IC50 was 87.3 ± 1.2 µM.
For `CCCC(=Cc1ccc(O)c(O)c1)C(=O)NC(Cc1ccccc1)C(=O)C(=O)NCc1ccccc1` (centres unmarked) [Compound 2d] the same measures were 107 ± 0.4%, 102 ± 0.1% and 45.2 ± 0.9 µM.
Taken in the same sequence, the figures for `CCCC(=Cc1ccc(O)c(O)c1)C(=O)NC(Cc1ccccc1)C(=O)C(=O)NCCc1ccc(OC)cc1` (centres unmarked) [Compound 2e] were 104 ± 0.2%, 104 ± 0.1% and 37.6 ± 2.1 µM.
Taken in the same sequence, the figures for `CCCCC(=Cc1ccc(O)c(O)c1)C(=O)NC(Cc1ccccc1)C(=O)C(=O)NCc1ccccc1` (centres unmarked) [Compound 2f] were 104 ± 0.4%, 100 ± 0.3% and 26.9 ± 1.4 µM.
What is called CC50 is the concentration at which the toxic effect on the cells reaches its halfway point. The compound `CCCCC(=Cc1ccc(O)c(O)c1)C(=O)NC(Cc1ccccc1)C(=O)C(=O)NCCc1ccc(OC)cc1` (centres unmarked) [Compound 2g] registered a CC50 at 72 h in data set [3] above 100 µM. In addition, in data set [2], the inhibition at 25 µM was found to be 107 ± 0.1%, the inhibition at 50 µM worked out at 103 ± 0.1% and the half-inhibitory concentration (IC50) amounted to 9.5 ± 0.6 µM.
In data set [3], `CCCCC(=Cc1ccc(O)c(OC)c1)C(=O)NC(Cc1ccccc1)C(=O)C(=O)NCCc1ccc(OC)cc1` (centres unmarked) [Compound 2h] returned a CC50 at 72 h above 100 µM. Also, in data set [2], the inhibition at 25 µM came out at 103 ± 0.2%, the inhibition at 50 µM turned out to be 100 ± 0.3% and the IC50 came out at 8.8 ± 0.4 µM.
Turning to `CCCCC(=Cc1ccc(OC)c(OC)c1)C(=O)NC(Cc1ccccc1)C(=O)C(=O)NCCc1ccc(OC)cc1` (centres unmarked) [Compound 2i], in data set [2], the inhibition at 25 µM amounted to 79.8 ± 1.8% and the inhibition at 50 µM is 94.2 ± 1.2%.
On to `CCCCCCCC/C=C\CCCCCCCCCCCCOP(=O)([O-])OCC[N+](C)(C)C` [Erufosine, reference compound], for which the midpoint of cytotoxicity in data set [3], the CC50 at 72 h, lay at 19.4 µM. In data set [2], the inhibition at 25 µM worked out at 100 ± 1%, the inhibition at 50 µM was 107.6 ± 0.3% and the IC50 was 9.8 ± 0.7 µM.
As to `O=C(/C=C/c1ccc(O)c(O)c1)O[C@H](Cc1ccc(O)c(O)c1)C(=O)O` [Rosmarinic acid], the half-maximal inhibitory concentration (IC50) is 57.3 µM in data set [1] (read-out: IC50 against promastigotes of L. infantum) and 61 µM in data set [4].
Take `O=C(/C=C/c1ccc(O)c(O)c1)O[C@@H]1C[C@](O)(C(=O)O)C[C@@H](O)[C@H]1O` [chlorogenic, chlorogenic acid]: in data set [4], the half-inhibitory concentration (IC50) was above 500 µM.

The values above are taken from paper PMC10675174, “Design, Synthesis, and Repurposing of Rosmarinic Acid-β-Amino-α-Ketoamide Hybrids as Antileishmanial Agents” (Pharmaceuticals, 2023).
